Assay results reported in US9919998B2, “Antibacterial agents: Nα-aroyl-N-aryl-phenylalaninamides” (priority 2014, dated 2018).
Converted amounts (≈) assume the structure as drawn. Where two headings read alike, the source gives them in different places.

What was measured:
Assay type in all cases: cell-based
[1] = tested on: Mycobacterium smegmatis ATCC 19420; experiment: Broth microdilution MIC, M. smegmatis; conditions: Mycolicibacterium smegmatis
Description: MICs in Mycobacterium smegmatis ATCC 19420 and Mycobacterium smegmatis ATCC 19420 derivatives were quantified using broth microdilution assays as described [Clinical and Laboratory Standards Institute (CLSI/NCCLS) (2009) Methods for Dilution Antimicrobial Susceptibility Tests for Bacteria That Grow Aerobically; Approved Standard, Eighth Edition. CLIS Document M07-A8 (CLIS, Wayne Pa.)].

[2] = tested on: Mycobacterium avium ATCC 25291; experiment: Microplate Alamar Blue assay (MABA) MIC, M. avium; conditions: ATCC25291, M. avium ATCC 25291
Description: (§1) Minimal inhibitory concentrations (MICs) in Mycobacterium tuberculosis H37Rv and Mycobacterium avium ATCC 25291 were quantified using microplate Alamar Blue assays as described (MABA; [Collins, L. & Franzblau, S. (1997) Microplate Alamar Blue assay versus BACTEC 460 system for high-throughput screening of compounds against Mycobacterium tuberculosis and Mycobacterium avium. Antimicrob. Agents Chemother. 41, 1004-1009]).

[3] = tested on: Mycobacterium tuberculosis H37Rv; experiment: Microplate Alamar Blue assay (MABA) MIC, M. tuberculosis; conditions: read-out: MIC Mycobacterium tuberculosis H37Rv
Description: as §1

[4] = ATCC19420, M. smegmatis ATCC 19420, read-out: MIC Mycobacterium smegmatis ATCC 19420
[5] = ATCC19420, broth microdilution assays, M. smegmatis ATCC19420, read-out: Inhibition of mycobacterial growth in culture (MICs)

O=C(N[C@@H](Cc1ccccc1)C(=O)Nc1cc(F)ccc1N1CCNCC1)c1ccccc1F (racemic) [IX-214b]
MIC [1, 4]: 6.25 µg/mL (≈ 13.5 µM) | MIC [2]: 12.5 µg/mL (≈ 26.9 µM) | MIC [3]: 12.5 µg/mL (≈ 26.9 µM)

O=C(N[C@@H](Cc1ccccc1)C(=O)Nc1cc(Cl)ccc1N1CCNCC1)c1ccccc1F (racemic) [IX-274b]
MIC [1, 4]: 6.25 µg/mL (≈ 13 µM) | MIC [2]: 6.25 µg/mL (≈ 13 µM) | MIC [3]: 6.25 µg/mL (≈ 13 µM)

O=C(NC(Cc1ccccc1)C(=O)Nc1ccccc1F)c1ccccc1 [AAP3, Nα-benzoyl-N-(2-fluorophenyl)-D/L-phenylalaninamide]
MIC [1, 5]: 1.56 µg/mL (≈ 4.3 µM)

O=C(NC(Cc1ccccc1)C(=O)Nc1ccccc1)c1ccccc1 [AAP4, Nα-benzoyl-N-phenyl-D/L-phenylalaninamide]
MIC [1, 5]: 0.78 µg/mL (≈ 2.26 µM)

O=C(NC(Cc1ccccc1)C(=O)Nc1ccncc1)c1ccccc1 [AAP5, Nα-benzoyl-N-(4-pyridyl)-D/L-phenylalaninamide]
MIC [1, 5]: 12.5 µg/mL (≈ 36.2 µM)

O=C(NC(Cc1ccccc1)C(=O)Nc1ccccn1)c1ccccc1 (centres unmarked) [AAP6]
MIC [1, 5]: 1.56 µg/mL (≈ 4.52 µM)

Cc1ccc(Cl)cc1NC(=O)[C@@H](Cc1ccccc1)NC(=O)c1ccccc1F [IX-55a]
MIC [1, 4]: 0.073 µg/mL (≈ 0.178 µM) | MIC [2]: 0.78 µg/mL (≈ 1.9 µM) | MIC [3]: 0.78 µg/mL (≈ 1.9 µM)

Cc1ccc(Cl)cc1NC(=O)[C@H](Cc1ccccc1)NC(=O)c1ccccc1F [IX-55b]
MIC [1, 4]: 25 µg/mL (≈ 60.8 µM) | MIC [2]: > 50 µg/mL | MIC [3]: > 50 µg/mL

O=C(NC(Cc1ccc(O)cc1)C(=O)Nc1cccc2c1OCO2)c1ccccc1Br (centres unmarked) [IX-125, N-(1-(benzo[d][1,3]dioxol-4-ylamino)-3-(4-hydroxyphenyl)-1-oxopropan-2-yl)-2-bromobenzamide]
MIC [1, 4]: 1.56 µg/mL (≈ 3.23 µM) | MIC [2]: 50 µg/mL (≈ 103 µM) | MIC [3]: 25 µg/mL (≈ 51.7 µM)

CC(=O)N1CCN(c2ccccc2NC(=O)C(Cc2ccccc2)NC(=O)c2ccccc2)CC1 (centres unmarked) [IX-236, N-(1-((2-(4-acetylpiperazin-1-yl)phenyl)amino)-1-oxo-3-phenyl-propan-2-yl)benzamide]
MIC [1, 4]: 0.195 µg/mL (≈ 0.414 µM) | MIC [2]: 6.25 µg/mL (≈ 13.3 µM) | MIC [3]: 6.25 µg/mL (≈ 13.3 µM)

CNC(=O)N1CCN(c2ccccc2NC(=O)C(Cc2ccccc2)NC(=O)c2ccccc2)CC1 (centres unmarked) [IX-238, 4-(2-(2-benzamido-3-phenylpropanamido)phenyl)-N-methyl-piperazine-1-carboxamide]
MIC [1, 4]: 0.195 µg/mL (≈ 0.402 µM) | MIC [2]: 1.56 µg/mL (≈ 3.21 µM) | MIC [3]: 1.56 µg/mL (≈ 3.21 µM)

O=C(NC(Cc1ccccc1)C(=O)Nc1cc(F)ccc1N1CCN(CCO)CC1)c1cccs1 (centres unmarked) [IX-247, N-(1-((5-fluoro-2-(4-(2-hydroxyethyl)piperazin-1-yl)phenyl)amino)-1-oxo-3-phenylpropan-2-yl)thiophene-2-carboxamide]
MIC [1, 4]: 0.39 µg/mL (≈ 0.785 µM) | MIC [2]: 3.12 µg/mL (≈ 6.29 µM) | MIC [3]: 1.56 µg/mL (≈ 3.14 µM)

COc1ccc(F)cc1NC(=O)C(Cc1ccccc1)NC(=O)c1ccccc1C (centres unmarked) [IX-277, N-(1-((5-fluoro-2-methoxyphenyl)amino)-1-oxo-3-phenylpropan-2-yl)-2-methylbenzamide]
MIC [1, 4]: 0.39 µg/mL (≈ 0.96 µM) | MIC [2]: 0.39 µg/mL (≈ 0.96 µM) | MIC [3]: 0.31 µg/mL (≈ 0.763 µM)

Cn1ncc2c(NC(=O)C(Cc3ccccc3)NC(=O)c3ccccc3F)cccc21 (centres unmarked) [IX-296, 2-fluoro-N-(1-((1-methyl-1H-indazol-4-yl)amino)-1-oxo-3-phenyl-propan-2-yl)benzamide]
MIC [1, 4]: 0.78 µg/mL (≈ 1.87 µM) | MIC [2]: 1.56 µg/mL (≈ 3.75 µM) | MIC [3]: 1.56 µg/mL (≈ 3.75 µM)

Cn1nnc2cccc(NC(=O)C(Cc3ccccc3)NC(=O)c3ccccc3F)c21 (centres unmarked) [IX-300, 2-fluoro-N-(1-((1-methyl-1H-benzo[d][1,2,3]triazol-7-yl)amino)-1-oxo-3-phenylpropan-2-yl)benzamide]
MIC [1, 4]: 1.56 µg/mL (≈ 3.74 µM) | MIC [2]: 6.25 µg/mL (≈ 15 µM) | MIC [3]: 6.25 µg/mL (≈ 15 µM)

Cc1ccccc1C(=O)NC(Cc1ccccc1)C(=O)Nc1cccc2nnn(C)c12 (centres unmarked) [IX-301, 2-methyl-N-(1-((1-methyl-1H-benzo[d][1,2,3]triazol-7-yl)amino)-1-oxo-3-phenylpropan-2-yl)benzamide]
MIC [1, 4]: 0.39 µg/mL (≈ 0.943 µM) | MIC [2]: 3.13 µg/mL (≈ 7.57 µM) | MIC [3]: 6.25 µg/mL (≈ 15.1 µM)

NC1CCN(c2ccc(F)cc2NC(=O)C(Cc2ccccc2)NC(=O)c2ccccc2F)C1 (centres unmarked) [IX-306, N-(1-((2-(3-aminopyrrolidin-1-yl)-5-fluorophenyl)amino)-1-oxo-3-phenylpropan-2-yl)-2-fluorobenzamide]
MIC [1, 4]: 0.78 µg/mL (≈ 1.68 µM)
